Laboratory results as given in US6852759B2, “Process for the synthesis of trans-alkenoic acids, use thereof” (priority 2002, dated 2005).
Marks after values point to notes of the source that are not given here.

Experiments:
[1] = test system: D-Galactosamine (Gal N) induced hepatic injury in rats; experiment: Hepatoprotective activity, prophylactic study, D-Galactosamine; type: in vivo
[2] = test system: CCl4, Paracetamol, Galactosamine and alcohol as hepatotoxins; experiment: Antihepatotoxicity/hepato-protective activity in vivo, overall comparison with silymarin; conditions: prophylactic and curative aspects in vivo
[3] = test system: CCl4 administration in mice; experiment: Hexobarbitone sleep time after CCl4 administration; type: in vivo
[4] = test system: D-Galactosamine (Gal N) induced hepatic injury in rats; experiment: Hepatoprotective activity, curative study, D-Galactosamine; type: in vivo
[5] = 12.5 mg/kg p.o. + Gal N, prophylactic
[6] = 25 mg/kg p.o. + Gal N, prophylactic
[7] = 50 mg/kg p.o. + Gal N, prophylactic
[8] = TCA alone 100 mg/kg p.o., no Gal N, prophylactic study
[9] = 12.5 mg/kg p.o. 1 h before CCl4, mice
[10] = 25 mg/kg p.o. 1 h before CCl4, mice
[11] = 50 mg/kg p.o. 1 h before CCl4, mice
[12] = 100 mg/kg p.o. 1 h before CCl4, mice
[13] = 12.5 mg/kg p.o. + Gal N, curative
[14] = 25 mg/kg p.o. + Gal N, curative
[15] = 50 mg/kg p.o. + Gal N, curative
[16] = TCA alone 50 mg/kg p.o., no Gal N, curative study

## CCCCCCCC/C=C/CCCCCCCCCCCCCC(=O)O [TCA, t-Tetracos-15-enoic acid]
[1]; [5]
  Serum ALP: 47.07 ± 2.98 μmole of p-nitrophenol formed/min/L
  Serum ALP, hepatoprotective activity percent: (30.88 ± 7.77) percent
  Serum Bilirubin: 0.56 ± 0.03 mg %
  Serum Bilirubin, hepatoprotective activity percent: (39.49 ± 4.59) percent
  Serum GOT: 613.20 ± 65.19 Units
  Serum GOT, hepatoprotective activity percent: (34.60 ± 7.57) percent
  Serum GPT: 743.62 ± 66.83 Units
  Serum GPT, hepatoprotective activity percent: (39.30 ± 6.25) percent
  Serum Triglycerides: 26.49 ± 1.88 mg %
  Serum Triglycerides, hepatoprotective activity percent: (37.38 ± 6.18) percent
[1]; [6]
  Serum ALP: 40.49 ± 2.29 μmole of p-nitrophenol formed/min/L
  Serum ALP, hepatoprotective activity percent: (51.62 ± 6.31) percent
  Serum Bilirubin: 0.44 ± 0.05 mg %
  Serum Bilirubin, hepatoprotective activity percent: (58.00 ± 3.86) percent
  Serum GOT: 505.26 ± 29.63 Units
  Serum GOT, hepatoprotective activity percent: (47.68 ± 3.99) percent
  Serum GPT: 635.11 ± 54.67 Units
  Serum GPT, hepatoprotective activity percent: (49.35 ± 5.16) percent
  Serum Triglycerides: 23.58 ± 2.02 mg %
  Serum Triglycerides, hepatoprotective activity percent: (46.97 ± 6.67) percent
[1]; [7]
  Serum ALP: 34.94 ± 1.43 μmole of p-nitrophenol formed/min/L
  Serum ALP, hepatoprotective activity percent: (66.91 ± 3.92) percent
  Serum Bilirubin: 0.36 ± 0.02 mg %
  Serum Bilirubin, hepatoprotective activity percent: (70.76 ± 2.78) percent
  Serum GOT: 406.05 ± 25.82 Units
  Serum GOT, hepatoprotective activity percent: (61.05 ± 3.48) percent
  Serum GPT: 413.53 ± 23.94 Units
  Serum GPT, hepatoprotective activity percent: (70.34 ± 2.25) percent
  Serum Triglycerides: 21.37 ± 1.51 mg %
  Serum Triglycerides, hepatoprotective activity percent: (54.25 ± 4.97) percent
[1]; [8]
  Serum ALP: 19.84 ± 1.58 μmole of p-nitrophenol formed/min/L
  Serum Bilirubin: 0.20 ± 0.02 mg %
  Serum GOT: 122.47 ± 11.84 Units
  Serum GPT: 95.22 ± 8.74 Units
  Serum Triglycerides: 8.79 ± 0.55 mg %
[2]
  antihepatotoxicity/hepato-protective activity compared with silymarin: better protection and reversal of biochemical parameters better then those obtained with silymarin
[3]; [9]
  Hexobarbitone Hepatoprotection: 35.55 ± 5.78%
  Hexobarbitone Sleeping time: 44.16 ± 1.87*^c min
[3]; [10]
  Hexobarbitone Hepatoprotection: 55.14 ± 7.16%
  Hexobarbitone Sleeping time: 37.83 ± 2.31**^c min
[3]; [11]
  Hexobarbitone Hepatoprotection: 74.21 ± 6.27%
  Hexobarbitone Sleeping time: 31.66 ± 2.31**^c min
[3]; [12]
  Hexobarbitone Hepatoprotection: 85.04 ± 7.12%
  Hexobarbitone Sleeping time: 28.16 ± 2.30**^c min
[3]; TCA alone 100 mg/kg p.o., no CCl4, mice
  Hexobarbitone Sleeping time: 21.85 ± 1.34 min
[4]; [13]
  Serum ALP: 46.03 ± 2.35^NS μmole of p-niotrophenol formed/min/L
  Serum ALP, hepatoprotective activity percent: (43.65 ± 6.96) percent
  Serum Bilirubin: 0.56 ± 0.03 mg %
  Serum Bilirubin, hepatoprotective activity percent: (46.75 ± 3.74) percent
  Serum GOT: 494.53 ± 41.13 Units
  Serum GOT, hepatoprotective activity percent: (34.12 ± 6.65) percent
  Serum GPT: 578.14 ± 57.37 Units
  Serum GPT, hepatoprotective activity percent: (40.40 ± 7.08) percent
  Serum Triglycerides: 11.85 ± 0.75^NS mg %
  Serum Triglycerides, hepatoprotective activity percent: (32.78 ± 8.37) percent
[4]; [14]
  Serum ALP: 38.87 ± 2.62 μmole of p-niotrophenol formed/min/L
  Serum ALP, hepatoprotective activity percent: (64.83 ± 7.74) percent
  Serum Bilirubin: 0.46 ± 0.03 mg %
  Serum Bilirubin, hepatoprotective activity percent: (59.74 ± 4.04) percent
  Serum GOT: 449.93 ± 31.58 Units
  Serum GOT, hepatoprotective activity percent: (41.37 ± 5.10) percent
  Serum GPT: 518.66 ± 42.64 Units
  Serum GPT, hepatoprotective activity percent: (47.74 ± 5.26) percent
  Serum Triglycerides: 10.48 ± 0.91^NS mg %
  Serum Triglycerides, hepatoprotective activity percent: (46.11 ± 9.77) percent
[4]; [15]
  Serum ALP: 36.94 ± 1.87 μmole of p-niotrophenol formed/min/L
  Serum ALP, hepatoprotective activity percent: (71.88 ± 5.54) percent
  Serum Bilirubin: 0.35 ± 0.02 mg %
  Serum Bilirubin, hepatoprotective activity percent: (73.16 ± 2.95) percent
  Serum GOT: 391.66 ± 29.53 Units
  Serum GOT, hepatoprotective activity percent: (50.76 ± 4.78) percent
  Serum GPT: 412.17 ± 31.17 Units
  Serum GPT, hepatoprotective activity percent: (60.88 ± 3.85) percent
  Serum Triglycerides: 9.23 ± 0.59 mg %
  Serum Triglycerides, hepatoprotective activity percent: (61.84 ± 6.59) percent
[4]; [16]
  Serum ALP: 24.45 ± 2.76 μmole of p-niotrophenol formed/min/L
  Serum Bilirubin: 0.19 ± 0.02 mg %
  Serum GOT: 91.07 ± 10.50 Units
  Serum GPT: 105.02 ± 18.74 Units
  Serum Triglycerides: 6.44 ± 0.38 mg %
